Measured values as given in article PMC5449454, “Anti-Double-Stranded DNA IgG Participates in Renal Fibrosis through Suppressing the Suppressor of Cytokine Signaling 1 Signals” (Frontiers in Immunology, 2017).

What was measured:
[1] = test system: anti-dsDNA IgG binding to mesangial cells; assay: Inhibition cell surface ELISA, anti-dsDNA IgG binding to mesangial cells; type: cell-based, murine; conditions: anti-dsDNA IgG premixed with D-form or scrambled ALW peptide; three independent experiments
Method: Common ELISAs (for binding to dsDNA or peptide) and inhibition ELISAs were performed as previously described ([8], [35]). Briefly, the KIR ELISA was carried out by adding biotinylated KIR peptide (DTHFRTFRSHSDYRRI, 5 µg/ml) to streptavidin-coated 96-well plates. For inhibition with KIR (or ALW) peptide, anti-dsDNA IgG (2 µg/ml) was pre-incubated with serially diluted peptide (from 0.04 to 80 µg/ml), and then transferred to antigen-coated 96-well plates. Alkaline phosphatase-conjugated goat anti-mouse IgG (2 µg/ml; Southern Biotech) was used as secondary antibody. Similarly, for inhibition with anti-dsDNA IgG, the FITC-labeled JAK2 loop peptide (LPQDKEYYKVKEP, 0.2 µg/ml) was pre-incubated with serially diluted anti-dsDNA IgG (from 0.02 to 20 µg/ml) before transfer to KIR-coated plates, which were detected for fluorescein intensity under a Perkin Elmer Reader (Winpact Scientific, Irvine, CA, USA). Cell surface ELISA was performed by growing mesangial cells in 96-well plates ([8], [35]). All peptides were synthesized by Sangon Biotech Company (Shanghai, China).

[2] = test system: glomerular endothelial cells; assay: Cell viability (PrestoBlue), glomerular endothelial cells; type: cell-based, murine; conditions: D-form ALW 1 µg/ml, 2 days
Method: By using a HiTrap purification kit (GE Healthcare, Port Washington, NY, USA) ([8]), anti-dsDNA IgG was purified from the culture supernatants of murine WJ31 hydridoma clone (IgG2a; Jieqing Biotech). Control murine IgG (IgG2a; Jieqing Biotech) was verified by enzyme-linked immunosorbent assay (ELISA) to determine that there was no binding to DNA antigen (data not shown). Cells were starved routinely before the 2-day stimulation of anti-dsDNA IgG or control IgG (2 µg/ml). In some experiments, mesangial cells were stimulated with anti-dsDNA IgG (2 µg/ml) that was premixed with D-form (ALWPPNLHAWVP) or scrambled (PLPHNPWVLAAW) ALW peptide (1 µg/ml). The cell viability of three types of cells was measured using PrestoBlue viability reagent (Life Technologies, Carlsbad, CA, USA).
Mesangial Glomerular Tubular cells endothelial epithelial
Supplementary Figure S7. Cell viability assays of kidney cells. (A) Murine cells were cultured in vitro, and received control or anti-dsDNA IgG stimulation (2 µg/ml, 2 days). (B) Similarly, these cells were also stimulated with scrambled or D-form ALW peptide (1 µg/ml, 2 days). The cell viability was measured using PrestoBlue viability reagent. Data were from three independent experiments. Data points and error bars […]
(also on this page, place not known: µ g/ml,2 µ g/ml,2 Cell viability (%) Cell viability (%))

Sequence: ALWPPNLHAWVP [D-form ALW, ALW peptide with two terminal residues A and P replaced with D-form ones]
- inhibition of anti-dsDNA IgG binding to mesangial cells [1]: inhibited
- cell viability [2]: no changes
